Here are results for 37 compounds from US10829487B2, “Benzylamino substituted pyridopyrimidinones and derivatives as SOS1 inhibitors” (Boehringer Ingelheim International GmbH, priority 2017, dated 2020).

For experiment [1], the target named is protein-protein interaction between SOS1 and KRAS G12D (Homo sapiens (Human), UniProt Q07889). The experiment in a line: KRAS::SOS1 AlphaScreen Binding Assay. The text has this: KRAS::SOS1 AlphaScreen Binding Assay
Low IC50 values are indicative of high potency of the SOS1 inhibitor compound in this assay setting:
Reagents: • GST-tagged SOS1 (564_1049_GST_TEV_ECO) produced in-house • GST-TEV-SOS1 (564-1049) is purchased from Viva Biotech Ltd. • 6×His-Tev-K-RasG12D(1-169)Avi is purchased from Xtal BioStructures, Inc. (Lot # X129-110) • GDP (Sigma Cat No G7127) • AlphaLISA Glutathione Acceptor Beads (PerkinElmer, Cat No AL109) • AlphaScreen Streptavidin Donor Beads (PerkinElmer Cat No 6760002) • Assay plates: Proxiplate-384 PLUS, white (PerkinElmer, Cat No 6008289)
10 nM (final assay concentration) KRAS G12D, 10 μM (final assay concentration) GDP and 5 nM (final assay concentration) GST-SOS1 are mixed in assay buffer prior to use and kept at room temperature.
AlphaLISA Glutathione Acceptor Beads and AlphaScreen Streptavidin Donor Beads are mixed in assay buffer at a concentration of 10 μg/mL (final assay concentration) each prior to use and kept at room temperature.
Compounds are diluted to a final start concentration of 100 μM and are tested in duplicate. Assay-ready plates (ARPs) are generated using an Access Labcyte Workstation with a Labcyte Echo 550 or 555 accoustic dispenser. For compound a start concentration of 100 μM, 150 nL of compound solution is transferred per well in 11 concentrations in duplicate with serial 1:5 dilutions.
The assay is run using a fully automated robotic system in a darkened room below 100 Lux. 10 μL of KRAS::SOS1 GDP mix is added into columns 1-24 to the 150 nL of compound solution (final dilution in the assay 1:100, final DMSO concentration 1%).
After a 30 minute incubation time 5 μL of bead mix is added into columns 1-23. Plates are kept at room temperature in a darkened incubator. After a further 60 minute incubation, the signal is measured using a PerkinElmer Envision HTS Multilabel Reader using the AlphaScreen specifications from PerkinElmer. Each plate contains the following controls: • diluted DMSO+KRAS::SOS1 GDP mix+bead mix • diluted DMSO+KRAS::SOS1 GDP mix
IC50 values are calculated and analyzed using a 4 parametric logistic model.

Experiment [2] has as its system ERK phosphorylation in DLD-1 cells (KRAS G13D). Nature of the experiment: ERK Phosphorylation Assay (AlphaLISA SureFire Ultra p-ERK1/2). It counts as cell-based. The conditions noted are these: Homo sapiens, 1 h compound, EGF 50 ng/mL 10 min, read-out: pERK. The method, then:
ERK Phosphorylation Assay
Low IC50 values are indicative of high potency of the SOS1 inhibitor compounds in this assay setting.
ERK phosphorylation assays are performed using the following human cell lines: DLD-1 (ATCC CCL-221): human colon cancer with a KRAS G13D mutation;
DLD-1 cells (ATCC CCL-221) are seeded at 50,000 cells per well in/60 μL of RPMI with 10% FBS, non-essential amino acids, pyruvate and glutamax in Greiner TC 384 plates. The cells are incubated for 1 h at room temperature and then incubated overnight in an incubator at 37° C. and 5% CO2 in a humidified atmosphere. 60 nL compound solution (10 mM DMSO stock solution) is then added using a Labcyte Echo 550 device. After a 1 h incubation in the aforementioned incubator, 3 μL Epidermal Growth Factor (EGF, final concentration 50 ng/mL) is added. 10 minutes later the medium is removed, and the cells lysed by addition of 20 μL of 1.6-fold lysis buffer from the AlphaLISA SureFire Ultra pERK1/2 (Thr202/Tyr204) Assay Kit with added protease inhibitors, 100 nM trametinib+100 nM staurosporine. After 20 minutes of incubation at room temperature with shaking, 6 μL of each lysate sample is transferred to a 384-well Proxiplate and analyzed for pERK (Thr202/Tyr204) with the AlphaLISA SureFire Ultra pERK1/2 (Thr202/Tyr204) Assay Kit. 3 μL Acceptor Mix and 3 μL Donor Mix are added under subdued light and incubated for 2 h at room temperature in the dark, before the signal is measured on a Perkin Elmer Envision plate reader using 384 AlphaScreen settings for Proxiplates. Data are fitted by iterative calculation with variable hill slope. The sigmoidal curve slope is fitted using a default fitting curve to ascertain IC50 values.
In general terms: Bead proximity is the source of the signal in Alpha formats.

Where [3] appears, read: KRAS G12D::SOS1 AlphaScreen, measured without EDTA unless marked with an asterisk.
Setting [4] is: Table 20, KRAS::SOS1 AlphaScreen (SOS1 / KRAS G12D).

protein-protein interaction between SOS1 and KRAS G12D, sequence (Q07889 564-1049, stated change not applied): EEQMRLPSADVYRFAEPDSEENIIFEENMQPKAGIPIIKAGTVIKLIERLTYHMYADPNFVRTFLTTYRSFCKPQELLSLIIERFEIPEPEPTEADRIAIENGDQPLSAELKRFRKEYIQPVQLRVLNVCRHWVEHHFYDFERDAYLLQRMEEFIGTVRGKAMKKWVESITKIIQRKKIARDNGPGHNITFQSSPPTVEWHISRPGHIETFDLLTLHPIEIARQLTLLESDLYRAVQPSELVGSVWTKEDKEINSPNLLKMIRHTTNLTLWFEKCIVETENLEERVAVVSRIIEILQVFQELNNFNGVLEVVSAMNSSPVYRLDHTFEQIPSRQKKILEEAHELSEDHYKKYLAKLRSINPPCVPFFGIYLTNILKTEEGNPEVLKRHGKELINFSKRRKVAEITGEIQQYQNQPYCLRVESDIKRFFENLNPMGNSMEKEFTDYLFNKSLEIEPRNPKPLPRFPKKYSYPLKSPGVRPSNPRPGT

For `Cc1c(=O)n(C23CCC(F)(CC2)CC3)cc2c(N[C@H](C)c3cccc(C(F)F)c3F)ncnc12` [I-171], the IC50 in experiment [1] (setting [3]) is 6 nM; in experiment [2], 93 nM. On the same counts, the results for `Cc1nc(N[C@H](C)c2cccc(C(F)F)c2C)c2cn(C3(C)CC3)c(=O)c(C)c2n1` [I-157] are 5 nM and 104 nM.

As to `Cc1nc(N[C@H](C)c2cccc(C(F)F)c2C)c2cn(C3(C)CCC3)c(=O)cc2n1` [I-23], the IC50 in experiment [1] (setting [4]) amounted to 4 nM; in experiment [2] it was 111 nM. On the same counts, the results for `Cc1nc(N[C@H](C)c2cccc(C(F)(F)F)c2C)c2cn(C3(C)CC3)c(=O)cc2n1` [I-37] are 5 nM and 61 nM.

As to `C[C@@H](Nc1ncnc2cc(=O)n(C34CC(C3)C4)cc12)c1cccc2c1CCC2(F)F` [I-106], the IC50 in experiment [1] (setting [3]) came to 4 nM; in experiment [2], 113 nM.

`Cc1nc(N[C@H](C)c2cccc(C(C)(F)F)c2F)c2cn(C3(C)CC3)c(=O)cc2n1` [I-52]: the IC50 was 4 nM in experiment [1] (setting [4]) and 96 nM in experiment [2]. In the case of `Cc1nc(N[C@H](C)c2cccc3c2OCC3(F)F)c2cn(C3(C(F)F)CC3)c(=O)cc2n1` [I-102], the IC50 in experiment [1] (setting [4]) came out at 4 nM; in experiment [2] it was 67 nM. As to `C[C@@H](Nc1ncnc2cc(=O)n(C34CCC(F)(CC3)CC4)cc12)c1cccc(C(F)F)c1F` [I-73], the IC50 was 3 nM in experiment [1] (setting [4]) and 88 nM in experiment [2]. Regarding `Cc1nc(N[C@H](C)c2cccc(C(F)(F)F)c2C)c2cn(C3(CF)CC3)c(=O)cc2n1` [I-38], the IC50 in experiment [2] was 33 nM. In the case of `Cc1nc(N[C@H](C)c2cccc(C(F)F)c2F)c2cn([C@]3(C(F)(F)F)CCOC3)c(=O)cc2n1` [I-119], the IC50 worked out at 5 nM in experiment [1] (setting [3]) and 70 nM in experiment [2]. For `Cc1nc(N[C@H](C)c2cccc(C(F)F)c2F)c2cn(C34CCC(O)(CC3)CC4)c(=O)c(C)c2n1` [I-156], in that order: 4 nM and 57 nM. Consider `Cc1nc(N[C@H](C)c2cccc(C(F)F)c2C)c2cn(C3(C(F)F)CC3)c(=O)cc2n1` [I-21], for which the IC50 in experiment [1] (setting [4]) came out at 3 nM; in experiment [2], 113 nM. For the compound `Cc1c(=O)n(C23CCC(CC2)C3)cc2c(N[C@H](C)c3cccc4c3CCC4(F)F)ncnc12` [I-177], the IC50 worked out at 2 nM in experiment [1] (setting [3]) and 91 nM in experiment [2]. Turning to `C[C@@H](Nc1ncnc2cc(=O)n(C3(C)CC3)cc12)c1cccc2c1CCC2(F)F` [I-104], the results for the IC50 in experiment [1] (setting [3]) and in experiment [2] were 4 nM and 87 nM, respectively. Consider `Cc1nc(N[C@H](C)c2cccc(C(F)(F)F)c2C)c2cn(C3(C(F)(F)F)CC3)c(=O)cc2n1` [I-39], for which the figures for the IC50 in experiment [1] (setting [4]) and in experiment [2] were 18 nM and 62 nM, respectively. Consider `Cc1c(=O)n(C23CC(F)(C2)C3)cc2c(N[C@H](C)c3cccc(C(C)(F)F)c3F)ncnc12` [I-176], for which the IC50 was found to be 10 nM in experiment [1] (setting [3]) and 120 nM in experiment [2]. `Cc1nc(N[C@H](C)c2cccc3c2CCC3(F)F)c2cn(C34CC(C3)C4)c(=O)cc2n1` [I-59]: the IC50 in experiment [1] (setting [4]) came out at 3 nM; in experiment [2], 113 nM. As to `Cc1nc(N[C@H](C)c2cccc(C(F)F)c2C)c2cn(C34CCC(C(=O)N(C)C)(CC3)CC4)c(=O)cc2n1` [I-124], the IC50 in experiment [1] (setting [3]) came out at 2 nM; in experiment [2], 85 nM. Consider `Cc1nc(N[C@H](C)c2cccc(C(F)(F)F)c2)c2cn(C3(C)CCOC3)c(=O)cc2n1` (some centres unmarked) [I-111], for which the IC50 in experiment [1] (setting [3]) came to 9 nM.

`Cc1nc(N[C@H](C)c2cccc(C(F)F)c2F)c2cn([C@@]3(C(F)(F)F)CCOC3)c(=O)cc2n1` [I-118] yielded an IC50 in experiment [1] (setting [3]) of 20 nM. As to `C[C@@H](Nc1ncnc2cc(=O)n(C34CCC(CC3)C4)cc12)c1cccc2c1CCC2=O` [I-109], the IC50 in experiment [1] (setting [3]) was found to be 6 nM.

On to `Cc1nc(N[C@H](C)c2cccc3c2CCC3(F)F)c2cn(C34CCN(CC3)C4)c(=O)c(C)c2n1` [I-160], for which the IC50 in experiment [1] (setting [3]) was determined as 2 nM. Turning to `Cc1nc(N[C@H](C)c2cccc(C(F)(F)CO)c2F)c2cn(C34CCC(CC3)CC4)c(=O)cc2n1` [I-130], the IC50 in experiment [1] (setting [3]) stood at 1 nM; in experiment [2] it was 38 nM. Take `Cc1nc(N[C@H](C)c2cccc(C(F)(F)F)c2C)c2cn(C3(C)CCC3)c(=O)cc2n1` [I-42]: the IC50 in experiment [1] (setting [4]) was 9 nM. On the same count and under the same terms, the same measure for `Cc1nc(N[C@H](C)c2cccc(C(C)(F)F)c2)c2cn(C3(C(F)F)CC3)c(=O)cc2n1` [I-99]: 7 nM; for `Cc1nc(N[C@H](C)c2cccc(C(F)(F)F)c2C)c2cn([C@H]3[C@@H]4COC[C@@H]43)c(=O)cc2n1` [I-40]: 9 nM. Consider `Cc1nc(N[C@H](C)c2cccc(C(F)F)c2F)c2cn(C34CCC(F)(CC3)CC4)c(=O)cc2n1` [I-121], for which the IC50 worked out at 5 nM in experiment [1] (setting [3]) and 93 nM in experiment [2].

With `Cc1c(=O)n(C2CC23CC3)cc2c(N[C@H](C)c3cccc(C(F)F)c3F)ncnc12` (some centres unmarked) [I-167], the IC50 in experiment [1] (setting [3]) stood at 36 nM. Turning to `Cc1nc(N[C@H](C)c2cccc(C(F)F)c2F)c2cn([C@H]3C[C@H](F)C3)c(=O)cc2n1` [I-12], the IC50 in experiment [1] (setting [4]) was 7 nM. `Cc1c(=O)n(C2(C)CC2)cc2c(N[C@H](C)c3cccc(C(C)(F)F)c3F)ncnc12` [I-174] returned an IC50 in experiment [1] (setting [3]) of 9 nM. Turning to `C[C@@H](Nc1ncnc2cc(=O)n(C3(C(F)(F)F)CCOC3)cc12)c1cccc(C(F)F)c1F` (some centres unmarked) [I-72], the IC50 in experiment [1] (setting [4]) worked out at 11 nM. Regarding `Cc1nc(N[C@H](C)c2cccc3c(F)coc23)c2cn(C3(C(F)F)CC3)c(=O)cc2n1` [I-103], the values for the IC50 in experiment [1] (setting [4]) and in experiment [2] were 5 nM and 70 nM, respectively. For `Cc1nc(N[C@H](C)c2cccc3c2CCC3(F)F)c2cn(C3(C(F)F)CC3)c(=O)cc2n1` [I-58], in that order: 2 nM and 89 nM. In experiment [1] (setting [3]), `Cc1nc(N[C@H](C)c2cccc(C(F)(F)F)c2)c2cn(C3(C)CCOCC3)c(=O)cc2n1` [I-112] registered an IC50 of 13 nM. As to `Cc1nc(N[C@H](C)c2cccc(C(F)(F)F)c2C)c2cn(C3CCC3)c(=O)cc2n1` [I-41], the IC50 in experiment [1] (setting [4]) is 14 nM. As for `Cc1nc(N[C@H](C)c2cccc(C(F)(F)CO)c2F)c2cn(C34CCC(CC3)C4)c(=O)cc2n1` [I-61], the results for the IC50 in experiment [1] (setting [4]) and in experiment [2] were 1 nM and 95 nM, respectively.

With `Cc1nc(N[C@H](C)c2cccc(CC(F)(F)F)c2)c2cn(C3(C(F)F)CC3)c(=O)cc2n1` [I-100], in experiment [1] (setting [4]), the IC50 stood at 30 nM.
